Legend:
PC-9 = assay: MTT cell viability assay; details: Homo sapiens, PC-9, 72 h
KG-1 SP cells = assay: Hoechst 33342 side population (SP) cell assay; type: cell-based, human; details: 5 μM, 48 h; vehicle 3.1%
From the text: (§1) Flow cytometry and Hoechst 33342 dye efflux assays were used to examine the possible influences of SKLB-677 on leukemia SP cells. This method is based on the findings that stem cells and early progenitors are able to pump out Hoechst via the ATP-Binding Cassette (ABC) transporters. This property allows the observation of a cell population (called side population) that has low Hoechst fluorescence in the blue and red regions of the spectrum. In this study, the Hoechst SP cell assays were performed with human AML MV4-11 and KG-1 cells, as well as primary AML PBMCs. […] As shown in Fig. 4a and Supplementary Fig. S6, MV4-11, KG-1, and primary AML PBMCs contained about 22.3%, 3.1%, and 0.5% SP cells, respectively.
(§2) Supplementary Mat eri al and Methods […]
(§3) Reactions were monitored by thin la yer chrom atograph y (TLC) on M erck silica gel 60 F-254 thin la yer plates. 1H NMR and 13C NMR spectra were recorded on a Bruker AV -400 spectrometer at 400 MHz and 100 MHz, respectivel y. […]
(§4) Lo w -resolution and high-resolution mass spectral (MS) data were determined on an Agilent 1100 Series LCMS with UV detection at 254nm in low -reson ance electrospray mode (ESI). All final compounds were purified to >95% purity, as determined b y hi gh- performance liquid chromatograph y (HP LC). […]

[1] = tested on: primary AML PBMCs SP cells; assay: Hoechst 33342 side population (SP) cell assay; type: cell-based, human; details: 5 μM, 48 h; vehicle 0.5%
From the text: as §1, §2, §3, §4

ERK5 = molecular target: T1, ERK5 (Homo sapiens, UniProt Q13164); assay: KINOMEscan panel screen; type: binding; details: read-out: Percent Control(%)
T1 construct: purchased DiscoveRx KINOMEscan (Ambit Biosciences)
T1 sequence (Q13164 whole entry): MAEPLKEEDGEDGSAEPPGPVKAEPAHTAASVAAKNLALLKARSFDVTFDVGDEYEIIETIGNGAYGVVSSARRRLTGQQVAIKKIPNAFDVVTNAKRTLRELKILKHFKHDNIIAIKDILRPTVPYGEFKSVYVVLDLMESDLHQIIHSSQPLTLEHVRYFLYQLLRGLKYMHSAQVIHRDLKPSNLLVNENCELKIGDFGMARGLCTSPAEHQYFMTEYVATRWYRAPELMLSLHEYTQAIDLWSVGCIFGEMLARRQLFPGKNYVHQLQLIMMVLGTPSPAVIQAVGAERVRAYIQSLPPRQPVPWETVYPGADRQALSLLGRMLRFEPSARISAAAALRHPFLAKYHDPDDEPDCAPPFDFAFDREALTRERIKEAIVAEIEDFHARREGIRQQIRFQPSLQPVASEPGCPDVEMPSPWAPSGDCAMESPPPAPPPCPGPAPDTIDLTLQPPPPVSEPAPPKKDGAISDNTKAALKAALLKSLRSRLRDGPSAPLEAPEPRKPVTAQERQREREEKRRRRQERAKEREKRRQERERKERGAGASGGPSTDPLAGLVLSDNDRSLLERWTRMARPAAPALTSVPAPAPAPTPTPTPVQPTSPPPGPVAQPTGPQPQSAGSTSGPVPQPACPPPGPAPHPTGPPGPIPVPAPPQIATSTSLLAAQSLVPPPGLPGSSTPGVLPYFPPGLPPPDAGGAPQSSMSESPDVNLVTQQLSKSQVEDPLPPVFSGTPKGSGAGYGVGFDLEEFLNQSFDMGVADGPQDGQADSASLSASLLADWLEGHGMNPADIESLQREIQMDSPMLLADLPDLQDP

NIK = molecular target: T2, NIK (Homo sapiens, UniProt Q99558); assay: KINOMEscan panel screen; type: binding; details: read-out: Percent Control(%)
T2 construct: purchased DiscoveRx KINOMEscan (Ambit Biosciences)
T2 sequence (Q99558 whole entry): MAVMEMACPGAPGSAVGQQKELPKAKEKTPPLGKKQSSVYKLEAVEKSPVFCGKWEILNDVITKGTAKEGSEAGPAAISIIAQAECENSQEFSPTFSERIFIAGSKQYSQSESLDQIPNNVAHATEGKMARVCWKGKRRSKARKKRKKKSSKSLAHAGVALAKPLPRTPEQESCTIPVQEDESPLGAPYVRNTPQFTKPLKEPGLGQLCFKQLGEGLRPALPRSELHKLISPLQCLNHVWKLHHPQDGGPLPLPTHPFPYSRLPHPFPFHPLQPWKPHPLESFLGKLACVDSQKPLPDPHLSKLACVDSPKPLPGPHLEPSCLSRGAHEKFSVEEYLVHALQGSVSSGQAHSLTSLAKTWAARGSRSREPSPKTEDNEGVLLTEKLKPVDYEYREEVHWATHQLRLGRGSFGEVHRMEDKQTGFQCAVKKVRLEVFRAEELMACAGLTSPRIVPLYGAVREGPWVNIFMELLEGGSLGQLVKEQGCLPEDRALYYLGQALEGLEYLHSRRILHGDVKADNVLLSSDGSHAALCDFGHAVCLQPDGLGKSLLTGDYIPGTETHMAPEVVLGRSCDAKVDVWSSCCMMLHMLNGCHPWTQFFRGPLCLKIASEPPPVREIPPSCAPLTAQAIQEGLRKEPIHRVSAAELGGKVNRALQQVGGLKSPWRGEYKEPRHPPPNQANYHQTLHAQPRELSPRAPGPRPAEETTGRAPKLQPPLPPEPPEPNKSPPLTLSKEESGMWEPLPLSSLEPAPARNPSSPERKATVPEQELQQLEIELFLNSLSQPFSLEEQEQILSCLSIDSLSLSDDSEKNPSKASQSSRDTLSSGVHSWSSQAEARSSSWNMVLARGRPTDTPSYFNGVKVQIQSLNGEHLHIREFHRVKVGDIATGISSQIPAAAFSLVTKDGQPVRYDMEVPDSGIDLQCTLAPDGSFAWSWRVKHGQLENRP

ERK2 = molecular target: T3, ERK2 (Homo sapiens, UniProt P28482); assay: KINOMEscan panel screen; type: binding; details: read-out: Percent Control(%)
T3 construct: purchased DiscoveRx KINOMEscan (Ambit Biosciences)
T3 sequence (P28482 whole entry): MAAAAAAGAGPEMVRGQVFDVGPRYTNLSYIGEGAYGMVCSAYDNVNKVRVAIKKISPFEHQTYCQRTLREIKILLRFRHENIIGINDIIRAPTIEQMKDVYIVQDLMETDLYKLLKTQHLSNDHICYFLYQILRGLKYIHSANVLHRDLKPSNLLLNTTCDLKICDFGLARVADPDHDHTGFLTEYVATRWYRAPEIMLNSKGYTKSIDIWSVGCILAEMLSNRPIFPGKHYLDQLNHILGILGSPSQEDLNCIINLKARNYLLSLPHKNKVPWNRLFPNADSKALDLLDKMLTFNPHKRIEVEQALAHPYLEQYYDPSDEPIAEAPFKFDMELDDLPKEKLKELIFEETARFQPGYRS

[2] = molecular target: T4, TYK2(JH2domain-pseudokinase) (Homo sapiens, UniProt P29597); assay: KINOMEscan panel screen; type: binding; details: read-out: Percent Control(%)
T4 construct: TYK2(JH2domain-pseudokinase); purchased DiscoveRx KINOMEscan (Ambit Biosciences)

FLT4 = molecular target: T5, FLT4 (Homo sapiens, UniProt P35916); assay: KINOMEscan panel screen; type: binding; details: read-out: Percent Control(%)
T5 construct: purchased DiscoveRx KINOMEscan (Ambit Biosciences)

LOK = LOK (Homo sapiens, UniProt O94804); assay: KINOMEscan panel screen; type: binding; details: read-out: Percent Control(%)
Sequence of LOK (O94804 whole entry): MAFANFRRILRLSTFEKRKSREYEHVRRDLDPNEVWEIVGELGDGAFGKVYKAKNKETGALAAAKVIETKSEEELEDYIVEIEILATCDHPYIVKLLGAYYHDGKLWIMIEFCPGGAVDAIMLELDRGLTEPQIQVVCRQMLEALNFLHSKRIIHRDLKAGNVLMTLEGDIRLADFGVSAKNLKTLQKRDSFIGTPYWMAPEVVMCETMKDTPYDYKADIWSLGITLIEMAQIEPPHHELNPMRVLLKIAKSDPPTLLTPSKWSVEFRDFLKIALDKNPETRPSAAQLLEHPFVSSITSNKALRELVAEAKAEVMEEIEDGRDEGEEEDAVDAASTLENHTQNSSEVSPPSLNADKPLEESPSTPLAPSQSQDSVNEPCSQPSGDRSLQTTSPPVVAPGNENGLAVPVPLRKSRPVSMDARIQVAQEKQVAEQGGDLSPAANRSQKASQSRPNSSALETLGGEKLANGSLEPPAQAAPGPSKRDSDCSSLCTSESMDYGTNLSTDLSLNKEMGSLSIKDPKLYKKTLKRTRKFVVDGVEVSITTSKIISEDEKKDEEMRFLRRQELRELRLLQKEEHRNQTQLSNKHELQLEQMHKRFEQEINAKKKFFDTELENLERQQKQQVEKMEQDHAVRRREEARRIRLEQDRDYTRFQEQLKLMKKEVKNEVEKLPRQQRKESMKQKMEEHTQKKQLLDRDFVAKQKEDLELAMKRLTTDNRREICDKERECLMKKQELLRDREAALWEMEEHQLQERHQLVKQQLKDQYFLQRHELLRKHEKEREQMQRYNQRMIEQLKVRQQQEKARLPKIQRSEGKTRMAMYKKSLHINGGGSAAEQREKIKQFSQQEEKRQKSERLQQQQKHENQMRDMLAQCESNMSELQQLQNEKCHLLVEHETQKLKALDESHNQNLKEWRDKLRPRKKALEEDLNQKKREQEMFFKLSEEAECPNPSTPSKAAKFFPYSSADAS

STK16 = molecular target: T6, STK16 (Homo sapiens, UniProt O75716); assay: KINOMEscan panel screen; type: binding; details: read-out: Percent Control(%)
T6 construct: purchased DiscoveRx KINOMEscan (Ambit Biosciences)
T6 sequence (O75716 whole entry): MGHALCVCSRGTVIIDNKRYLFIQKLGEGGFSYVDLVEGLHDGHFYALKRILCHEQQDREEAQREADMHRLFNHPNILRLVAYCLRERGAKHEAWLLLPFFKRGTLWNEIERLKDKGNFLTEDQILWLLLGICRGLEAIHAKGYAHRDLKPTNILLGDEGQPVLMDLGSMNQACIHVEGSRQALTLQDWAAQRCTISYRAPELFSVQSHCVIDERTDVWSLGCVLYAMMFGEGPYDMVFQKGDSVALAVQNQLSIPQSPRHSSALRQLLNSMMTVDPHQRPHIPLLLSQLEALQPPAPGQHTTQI

BRSK2 = molecular target: T7, BRSK2 (Homo sapiens, UniProt Q8IWQ3); assay: KINOMEscan panel screen; type: binding; details: read-out: Percent Control(%)
T7 construct: purchased DiscoveRx KINOMEscan (Ambit Biosciences)
T7 sequence (Q8IWQ3 whole entry): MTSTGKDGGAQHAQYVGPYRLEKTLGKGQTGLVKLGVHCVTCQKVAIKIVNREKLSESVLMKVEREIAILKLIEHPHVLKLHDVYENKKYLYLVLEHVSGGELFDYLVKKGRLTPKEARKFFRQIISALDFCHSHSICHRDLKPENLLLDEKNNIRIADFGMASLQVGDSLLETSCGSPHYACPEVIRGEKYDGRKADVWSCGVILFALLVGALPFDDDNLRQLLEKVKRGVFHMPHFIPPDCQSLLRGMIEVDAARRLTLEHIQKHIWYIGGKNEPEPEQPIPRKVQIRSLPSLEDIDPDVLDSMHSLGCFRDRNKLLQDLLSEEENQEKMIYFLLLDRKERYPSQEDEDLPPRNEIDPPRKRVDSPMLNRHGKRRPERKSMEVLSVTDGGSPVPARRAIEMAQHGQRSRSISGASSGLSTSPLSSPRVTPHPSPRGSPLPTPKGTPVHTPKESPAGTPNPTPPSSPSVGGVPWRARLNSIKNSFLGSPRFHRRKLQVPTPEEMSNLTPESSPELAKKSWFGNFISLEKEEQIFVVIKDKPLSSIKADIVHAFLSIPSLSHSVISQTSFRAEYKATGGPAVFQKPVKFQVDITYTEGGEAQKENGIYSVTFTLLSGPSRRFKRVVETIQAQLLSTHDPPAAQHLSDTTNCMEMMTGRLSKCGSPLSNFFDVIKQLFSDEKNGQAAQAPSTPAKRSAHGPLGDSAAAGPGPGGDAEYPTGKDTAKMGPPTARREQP

AMPK-alpha2 = molecular target: T8, AMPK-alpha2 (Homo sapiens, UniProt P54646); assay: KINOMEscan panel screen; type: binding; details: read-out: Percent Control(%)
T8 construct: purchased DiscoveRx KINOMEscan (Ambit Biosciences)

ANKK1 = molecular target: T9, ANKK1 (Homo sapiens, UniProt Q8NFD2); assay: KINOMEscan panel screen; type: binding; details: read-out: Percent Control(%)
T9 construct: purchased DiscoveRx KINOMEscan (Ambit Biosciences)
T9 sequence (Q8NFD2 whole entry): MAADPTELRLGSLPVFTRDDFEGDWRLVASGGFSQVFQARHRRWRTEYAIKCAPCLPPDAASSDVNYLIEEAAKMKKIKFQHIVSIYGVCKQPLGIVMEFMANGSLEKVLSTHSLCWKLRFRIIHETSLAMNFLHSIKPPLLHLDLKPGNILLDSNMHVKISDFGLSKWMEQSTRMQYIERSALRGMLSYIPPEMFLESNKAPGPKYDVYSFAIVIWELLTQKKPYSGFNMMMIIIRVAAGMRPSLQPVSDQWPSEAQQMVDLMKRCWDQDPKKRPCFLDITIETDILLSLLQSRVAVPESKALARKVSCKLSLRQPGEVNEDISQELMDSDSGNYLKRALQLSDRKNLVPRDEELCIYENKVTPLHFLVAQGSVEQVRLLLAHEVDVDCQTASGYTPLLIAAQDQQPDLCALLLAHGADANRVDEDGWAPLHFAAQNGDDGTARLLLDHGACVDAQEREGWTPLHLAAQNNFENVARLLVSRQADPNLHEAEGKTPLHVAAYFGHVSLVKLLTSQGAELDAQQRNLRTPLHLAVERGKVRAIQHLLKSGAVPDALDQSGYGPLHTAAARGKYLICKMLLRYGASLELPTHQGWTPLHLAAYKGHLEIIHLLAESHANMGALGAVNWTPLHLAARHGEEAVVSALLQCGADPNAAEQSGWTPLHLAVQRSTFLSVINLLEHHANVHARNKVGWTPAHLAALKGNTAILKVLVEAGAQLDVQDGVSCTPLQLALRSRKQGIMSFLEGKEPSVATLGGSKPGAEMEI

KG-1 = assay: MTT cell viability assay; details: Homo sapiens, KG-1, 72 h
PKMYT1 = molecular target: T10, PKMYT1 (Homo sapiens, UniProt Q99640); assay: KINOMEscan panel screen; type: binding; details: read-out: Percent Control(%)
T10 construct: purchased DiscoveRx KINOMEscan (Ambit Biosciences)

CHEK2 = molecular target: T11, CHEK2 (Homo sapiens, UniProt O96017); assay: KINOMEscan panel screen; type: binding; details: read-out: Percent Control(%)
T11 construct: purchased DiscoveRx KINOMEscan (Ambit Biosciences)

FGR = molecular target: T12, FGR (Homo sapiens, UniProt P09769); assay: KINOMEscan panel screen; type: binding; details: read-out: Percent Control(%)
T12 construct: purchased DiscoveRx KINOMEscan (Ambit Biosciences)

EGFR(L861Q) = molecular target: T13, EGFR(L861Q) (Homo sapiens, UniProt P00533, L861Q); assay: KINOMEscan panel screen; type: binding; details: read-out: Percent Control(%)
T13 construct: purchased DiscoveRx KINOMEscan (Ambit Biosciences)

MYLK4 = molecular target: T14, MYLK4 (Homo sapiens, UniProt Q86YV6); assay: KINOMEscan panel screen; type: binding; details: read-out: Percent Control(%)
T14 construct: purchased DiscoveRx KINOMEscan (Ambit Biosciences)

PAK7 = molecular target: T15, PAK7 (Homo sapiens, UniProt Q9P286); assay: KINOMEscan panel screen; type: binding; details: read-out: Percent Control(%)
T15 construct: purchased DiscoveRx KINOMEscan (Ambit Biosciences)

LYN = molecular target: T16, LYN (Homo sapiens, UniProt P07948); assay: KINOMEscan panel screen; type: binding; details: read-out: Percent Control(%)
T16 construct: purchased DiscoveRx KINOMEscan (Ambit Biosciences)

EPHB2 = molecular target: T17, EPHB2 (Homo sapiens, UniProt P29323); assay: KINOMEscan panel screen; type: binding; details: read-out: Percent Control(%)
T17 construct: purchased DiscoveRx KINOMEscan (Ambit Biosciences)

HUNK = molecular target: T18, HUNK (Homo sapiens, UniProt P57058); assay: KINOMEscan panel screen; type: binding; details: read-out: Percent Control(%)
T18 construct: purchased DiscoveRx KINOMEscan (Ambit Biosciences)

BTK = BTK (Homo sapiens, UniProt Q06187); assay: KINOMEscan kinase binding assay (Kd)
NEK5 = molecular target: T19, NEK5 (Homo sapiens, UniProt Q6P3R8); assay: KINOMEscan panel screen; type: binding; details: read-out: Percent Control(%)
T19 construct: purchased DiscoveRx KINOMEscan (Ambit Biosciences)

[3] = molecular target: T20, ABL1(M351T)-phosphorylated (Homo sapiens, UniProt P00519, M351T); assay: KINOMEscan panel screen; type: binding; details: read-out: Percent Control(%)
T20 construct: purchased DiscoveRx KINOMEscan (Ambit Biosciences)

ACVR1B = molecular target: T21, ACVR1B (Homo sapiens, UniProt P36896); assay: KINOMEscan panel screen; type: binding; details: read-out: Percent Control(%)
T21 construct: purchased DiscoveRx KINOMEscan (Ambit Biosciences)

PIK3CA(E545K) = molecular target: T22, PIK3CA(E545K) (Homo sapiens, UniProt P42336, E545K); assay: KINOMEscan panel screen; type: binding; details: read-out: Percent Control(%)
T22 construct: purchased DiscoveRx KINOMEscan (Ambit Biosciences)

SMILES: CC(C)(C)c1cc(NC(=O)Nc2ccc(Oc3ncnc4[nH]ncc34)c(F)c2)no1 [SKLB-677, 1-(4-(1H-pyrazolo[3,4-d]pyrimidin-4-yloxy)-3-fluorophenyl)-3-(5-tert-butylisoxazol-3-yl)urea]
- IC50 (PC-9): 8.03 µM
- SP cells (KG-1 SP cells): could almost eliminate SP cells
- SP cells [1]: could almost eliminate SP cells
- remaining binding at 10 µM (ERK5): 70%
- remaining binding at 10 µM (NIK): 90%
- remaining binding at 10 µM (ERK2): 100%
- remaining binding at 10 µM [2]: 100%
- remaining binding at 10 µM (FLT4): 0%
- remaining binding at 10 µM (LOK): 0%
- remaining binding at 10 µM (STK16): 36%
- remaining binding at 10 µM (BRSK2): 76%
- remaining binding at 10 µM (AMPK-alpha2): 7.8%
- remaining binding at 10 µM (ANKK1): 57%
- IC50 (KG-1): 2 µM
- remaining binding at 10 µM (PKMYT1): 100%
- remaining binding at 10 µM (CHEK2): 32%
- remaining binding at 10 µM (FGR): 9.4%
- remaining binding at 10 µM (EGFR(L861Q)): 46%
- remaining binding at 10 µM (MYLK4): 78%
- remaining binding at 10 µM (PAK7): 100%
- remaining binding at 10 µM (LYN): 2%
- remaining binding at 10 µM (EPHB2): 5.2%
- remaining binding at 10 µM (HUNK): 80%
- Kd (BTK): > 10 µM
- remaining binding at 10 µM (NEK5): 9.8%
- remaining binding at 10 µM [3]: 5.6%
- remaining binding at 10 µM (ACVR1B): 100%
- remaining binding at 10 µM (PIK3CA(E545K)): 100%

Reference: paper PMC4620497 (Scientific Reports, 2015)
